The target of experiment [1] is His-GST-TVMV-hRIPK1(1-324) (Homo sapiens (Human), UniProt Q13546). Put plainly: RIPK1 HTRF Binding Assay. To be noted: HTRF binding, 1 h at rt; read-out: RIPK1 (IC50). A digest of the protocol:
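HTRF probe-displacement binding: 1 nM His-GST-TVMV-hRIPK1(1-324) (baculovirus construct), 90.6 nM probe, 0.2 nM anti-GST-Tb in 20 mM HEPES, 10 mM MgCl2, 0.015% Brij-35, 4 mM DTT, 0.05 mg/mL BSA. Incubated 1 h at rt; FRET 520/495 nm ratio, inhibition relative to DMSO-only wells.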

Experiment [2] deals with MLKL phosphorylation in HT29-L23 human colorectal adenocarcinoma cells. Put plainly: MLKL Phosphorylation High-Content Assay. To be noted: necroptosis induced with TNFα, SMAC mimetic and Z-VAD, 6 h, read-out: pMLKL (IC50). The experiment is classed as cell-based. The essentials:
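HT29-L23 cells pretreated 30 min at 37 °C with compound (6.25 to 0.106 μM final), then necroptosis induced with TNFα 35 ng/mL, SMAC mimetic 700 nM and Z-VAD 140 nM for 6 h. Fixed cells immunostained for MLKL pS358 and imaged; IC50 and Ymax from 4-parameter logistic fit.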

Counter-ions that a name gives are not always drawn. Like-named read-outs stand apart in the source and are kept apart here.

His-GST-TVMV-hRIPK1(1-324), sequence (Q13546 1-324): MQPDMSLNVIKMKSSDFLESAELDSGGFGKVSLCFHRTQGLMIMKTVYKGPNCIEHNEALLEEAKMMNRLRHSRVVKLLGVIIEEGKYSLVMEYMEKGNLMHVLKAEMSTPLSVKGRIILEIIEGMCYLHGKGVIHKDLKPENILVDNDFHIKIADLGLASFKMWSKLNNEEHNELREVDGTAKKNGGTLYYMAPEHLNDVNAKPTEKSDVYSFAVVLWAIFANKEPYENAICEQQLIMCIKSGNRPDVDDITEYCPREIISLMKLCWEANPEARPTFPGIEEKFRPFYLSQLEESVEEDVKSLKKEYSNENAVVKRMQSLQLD

As to `CC(=O)Nc1cn2nc(-c3cnc(Cl)c(C(=O)NCc4cc(C(F)(F)F)ccc4F)c3)ccc2n1` [Example 275, 2-chloro-5-{2-acetamidoimidazo[1,2-b]pyridazin-6-yl}-N-{[2-fluoro-5-(trifluoromethyl)phenyl]methyl}pyridine-3-carboxamide], the values for the IC50 in experiment [1] and in experiment [2] were 32 nM and 52 nM, respectively.
Take “N-{[3,5-difluoro-2-(oxan-3- yloxy)phenyl]methyl}-5-{2- acetamidoimidazo[1,2-b]pyridazin- 6-yl}-2-(deutero)methoxy-6- methylpyridine-3-carboxamide [Example 170]”: the results for the IC50 in experiment [1] and in experiment [2] were 4 nM and 3 nM, respectively.
On to `COc1ncc(-c2ccc3nc(NC(C)=O)cn3n2)cc1C(=O)NCc1cc(F)ccc1OC1CCCC1` [Example 166, N-{[2-(cyclopentyloxy)-5-fluorophenyl]methyl}-5-{2-acetamidoimidazo[1,2-b]pyridazin-6-yl}-2-methoxypyridine-3-carboxamide], for which the IC50 is 4 nM in experiment [1] and 1 nM in experiment [2] (Homo sapiens).
As for `CNCC(=O)Nc1cn2nc(-c3cnc(C)c(C(=O)N[C@H](C)c4cc(OC(F)(F)F)ccc4F)c3)ccc2n1` [Example 340, N-[(1R)-1-[2-fluoro-5-(trifluoromethoxy)-phenyl]ethyl]-2-methyl-5-{2-[2-(methylamino)-acetamido]imidazo [1,2-b]pyridazin-6-yl}pyridine-3-carboxamide], the figures for the IC50 in experiment [1] and in experiment [2] (Homo sapiens) were 67 nM and 258 nM, respectively.
For `CC(=O)Nc1cn2nc(-c3cnc(C)c(C(=O)N4CCCC(O)(Cc5ccc(F)cc5)C4)c3)ccc2n1` (stereo not drawn) [Example 357, N-[6-(5-{3-[(4-fluorophenyl)methyl]-3-hydroxypiperidine-1-carbonyl}-6-methylpyridin-3-yl)imidazo[1,2-b]pyridazin-2-yl] acetamide] the same measures were 335 nM and 219 nM.
With `CC(=O)Nc1cn2nc(-c3ccc(C)c(C(=O)NCc4c(F)cccc4-c4cnn(C)c4)c3)ccc2n1` [Example 402, 5-{2-acetamidoimidazo [1,2-b]pyridazin-6-yl}-N-{[2-fluoro-6-(1-methyl-1H-pyrazol-4-yl)phenyl]methyl}-2-methylbenzamide], the IC50 was determined as 56 nM in experiment [1] and 94 nM in experiment [2] (Homo sapiens).
Take `[2H]C([2H])([2H])[C@H](NC(=O)c1ccc(C)c(-c2ccc3nc(NC(C)=O)cn3n2)c1F)c1cc(OC(F)(F)F)ccc1F` [Example 429, 3-{2-acetamidoimidazo [1,2-b]pyridazin-6-yl}-2-fluoro-N-[(1S)-1-[2-fluoro-5-(trifluoromethoxy)phenyl](2,2,2-Â^2Hâ,f)ethyl]-4-methylbenzamide]: the results for the IC50 in experiment [1] and in experiment [2] (Homo sapiens) were 9 nM and 20 nM, respectively.
For the molecule `COc1ncc(-c2ccc3nc(NC(C)=O)cn3n2)cc1C(=O)NCc1c(F)cc(F)cc1OCC1CC1` [Example 150, N-{[2-(cyclopropylmethoxy)-4,6-difluorophenyl]methyl}-5-{2-acetamidoimidazo[1,2-b]pyridazin-6-yl}-2-methoxypyridine-3-carboxamide], the IC50 was 18 nM in experiment [1] and 24 nM in experiment [2] (Homo sapiens).
Regarding `[2H]C([2H])([2H])Oc1nc(C)c(-c2ccc3nc(NC(C)=O)cn3n2)cc1C(=O)NCc1cc(OCC2CC2)ccc1F` [Example 180, N-{[5-(cyclopropyhnethoxy)-2-fluorophenyl]methyl}-5-{2-acetamidoimidazo[1,2-b]pyridazin-6-yl}-2-(deutero)methoxy-6-methylpyridine-3-carboxamide], the values for the half-inhibitory concentration (IC50) in experiment [1] and in experiment [2] (Homo sapiens) were 4 nM and 18 nM, respectively.
For the molecule `O=C(CN1CCC(C(F)(F)F)CC1)Nc1cn2nc(-c3cccc(C(=O)NCC[C@@H](O)c4ccc(Cl)cc4)c3F)ccc2n1` [Example 428, N-[(3R)-3-(4-chlorophenyl)-3-hydroxypropyl]-2-fluoro-3-(2-{2-[4-(trifluoromethyl)piperidin-1-yl]acetamido}imidazo[1,2-b]pyridazin-6-yl)benzamide], the IC50 worked out at 12 nM in experiment [1] and 9 nM in experiment [2] (Homo sapiens).
The matching figures for `CC(=O)Nc1cn2nc(-c3cnc(Cl)c(C(=O)NCC[C@H](O)c4ccc(Cl)cc4)c3)ccc2n1` [Example 267, 2-chloro-N-[(3S)-3-(4-chlorophenyl)-3-hydroxypropyl]-5-{2-acetamidoimidazo[1,2-b]pyridazin-6-yl}pyridine-3-carboxamide]: 81 nM and 383 nM.
For the molecule `CC(=O)Nc1cn2nc(-c3cnc(C)c(C(=O)NCc4cc(F)cc(F)c4OCC4CC4)c3)ccc2n1` [Example 214, N-{[2-(cyclopropylmethoxy)-3,5-difluorophenyl]methyl}-5-{2-acetamidoimidazo[1,2-b]pyridazin-6-yl}-2-methylpyridine-3-carboxamide], the results for the IC50 in experiment [1] and in experiment [2] (Homo sapiens) were 1 nM and 16 nM, respectively.
Turning to `CC(=O)Nc1cn2nc(-c3cc(F)cc(C(=O)NCC[C@@H](O)c4ccc(Cl)cc4)c3)ccc2n1` [Example 370, N-[(3R)-3-(4-chlorophenyl)-3-hydroxypropyl]-3-{2-acetamidoimidazo [1,2-b]pyridazin-6-yl}-5-fluorobenzamide], the IC50 in experiment [1] came out at 34 nM; in experiment [2] (Homo sapiens), 210 nM.
On to “3-{2- acetamidoimidazo [1,2-b]pyridazin- 6-yl}-2-fluoro- N-{[2-fluoro-5- (trifluoromethoxy) phenyl] (Â^2Hâ,,)methyl} benzamide [Example 430]”, for which the IC50 in experiment [1] was 3 nM; in experiment [2], 9 nM.
On to `COc1ncc(-c2ccc3nc(NC(C)=O)cn3n2)cc1C(=O)NC(C)c1ccccc1OC(F)(F)F` (stereo not drawn) [Example 137, 5-{2-acetamidoimidazo[1,2-b]pyridazin-6-yl}-2-methoxy-N-{1-[2-(trifluoro-methoxy)phenyl]ethyl}pyridine-3-carboxamide], for which the IC50 in experiment [1] turned out to be 7 nM; in experiment [2] (Homo sapiens), 14 nM.
For `CC(=O)Nc1cn2nc(-c3cncc(C(=O)NCc4ccccc4OC4CCCC4)c3)ccc2n1` [Example 21, N-{[2-(cyclopentyloxy)phenyl]methyl}-5-{2-acetamidoimidazo[1,2-b]pyridazin-6-yl}pyridine-3-carboxamide], the results for the IC50 in experiment [1] and in experiment [2] (Homo sapiens) were 10 nM and 29 nM, respectively.
Take `COc1ncc(-c2ccc3nc(NC(=O)C(C)C)cn3n2)cc1C(=O)NCc1cc(OC(F)(F)F)ccc1F` [Example 11, N-{[2-fluoro-5-(trifluoromethoxy)phenyl]methyl}-2-methoxy-5-[2-(2-methylpropanamido)imidazo[1,2-b]pyridazin-6-yl]pyridine-3-carboxamide]: the IC50 was 20 nM in experiment [1] and 89 nM in experiment [2] (Homo sapiens).
With `[2H]C([2H])([2H])Oc1ncc(-c2ccc3nc(NC(C)=O)cn3n2)cc1C(=O)N[C@@H](C)c1cc(OC(F)(F)F)ccc1F` [Example 41, 5-{2-acetamidoimidazo[1,2-b]pyridazin-6-yl}-N-[(1S)-1-[2-fluoro-5-(trifluoromethoxy)phenyl]ethyl]-2-(D3)methoxypyridine-3-carboxamide], the IC50 in experiment [1] came out at 63 nM; in experiment [2] (Homo sapiens) it was 78 nM.
In the case of `COc1ncc(-c2ccc3nc(NC(C)=O)cn3n2)cc1C(=O)NCc1ccccc1OC1CCCC1` [Example 159, N-{[2-(cyclopentyloxy)phenyl]methyl}-5-{2-acetamidoimidazo[1,2-b]pyridazin-6-yl}-2-methoxypyridine-3-carboxamide], the values for the IC50 in experiment [1] and in experiment [2] (Homo sapiens) were 3 nM and 6 nM, respectively.
For `COc1ccc(F)c(CNC(=O)c2cc(-c3ccc4nc(NC(C)=O)cn4n3)cnc2OC)c1` [Example 100, 5-{2-acetamidoimidazo[1,2-b]pyridazin-6-yl}-N-[(2-fluoro-5-methoxyphenyl)methyl]-2-methoxypyridine-3-carboxamide], the IC50 in experiment [1] worked out at 56 nM; in experiment [2] (Homo sapiens), 203 nM.
Take `COc1ncc(-c2ccc3nc(NC(C)=O)cn3n2)cc1C(=O)NCc1ccc(F)c(F)c1OC(C)C1CC1` (stereo not drawn) [Example 131, N-{[2-(1-cyclopropylethoxy)-3,4-difluorophenyl]methyl}-5-{2-acetamidoimidazo[1,2-b]pyridazin-6-yl}-2-methoxypyridine-3-carboxamide]: the IC50 in experiment [1] came out at 79 nM; in experiment [2] it was 481 nM.
As to `CCC(=O)Nc1cn2nc(-c3cnc(OC)c(C(=O)NCc4ccccc4OC(F)(F)F)c3)ccc2n1` [Example 248, 2-methoxy-5-{2-propanamidoimidazo[1,2-b]pyridazin-6-yl}-N-{[2-(trifluoromethoxy)phenyl]methyl}pyridine-3-carboxamide, TFA], the results for the IC50 in experiment [1] and in experiment [2] (Homo sapiens) were 13 nM and 55 nM, respectively.
`[2H]C([2H])([2H])Oc1ncc(-c2ccc3nc(NC(C)=O)cn3n2)cc1C(=O)NC(C)c1cc(C(F)(F)F)ccc1F` (stereo not drawn) [Example 52, 5-{2-acetamidoimidazo[1,2-b]pyridazin-6-yl}-N-{1-[2-fluoro-5-(trifluoromethyl)phenyl]ethyl}-2-(D3)methoxypyridine-3-carboxamide]: the IC50 in experiment [1] turned out to be 65 nM; in experiment [2], 185 nM.
For the molecule `CC(=O)Nc1cn2nc(-c3ccc(F)c(C(=O)N[C@@H](C)c4cc(OC(F)(F)F)ccc4F)c3F)ccc2n1` [Example 379, 3-{2-acetamidoimidazo [1,2-b]pyridazin-6-yl}-2,6-difluoro-N-[(1S)-1-[2-fluoro-5-(trifluoromethoxy)phenyl]ethyl] benzamide], the IC50 in experiment [1] worked out at 1 nM; in experiment [2] (Homo sapiens), 5 nM.

The values above are taken from patent publication US11440913B2, “Aminoimidazopyridazines as kinase inhibitors” (BRISTOL-MYERS SQUIBB COMPANY, priority 2017, dated 2022).
